Test results published in US20240240189A1, “CANCER TREATMENT BY TARGETING PROTEINS OR INTERACTIONS OF EPHRINB-RGS3-KIF20A-SEPT7 AXIS” (CITY OF HOPE, priority 2021, published 2024).
Entries after “also recorded” stand apart in the source; their conditions may differ.

Tests used:
GISC017 cells [1] = experiment: Cell cycle exit analysis (EdU/Ki67) in GISC017 cells; format: cell-based, human; settings: shRNA expression vs scrambled shRNA
From the text: (§1) To further investigate the relevance of KIF20A in human brain tumors, inhibition of KIF20A in patient-derived GBM-initiating/stem cells (GISCs) was examined. As the ERKS axis functions in different types of brain tumor-initiating/stem cells, data obtained from study of GISCs would be applicable to other brain tumor cell types. Multiple lines of patient-derived GISCs were obtained from Dr. Christine Brown. These low passaged GISCs could be expanded in cultures and could engraft in NSG mice^43, 44. FIG. 11 summarizes the results of testing KIF20A in one GISC line (GISC017) by constitutive expression of a control scrambled shRNA or shKIF20A726 (shRNA targeting hKIF20A) in pNUT vector-based lentiviral expression system. […] In the above cell cycle exit analysis, co-staining of differentiation markers (e.g. βlll-tubulin, DCX, or NeuN) was performed, however, these markers were detected in EdU^+Ki67^− (cells having left the cell cycle) but also in some EdU^+Ki67^+ (cells staying in the cell cycle) cells, which might reflect a technical artefact observed with progenitor/stem cells in culture. […]

human KIF20A transcript = experiment: shRNA screening by dual luciferase reporter assay; format: cell-based; settings: transfected HEK293 cells, shRNA in pNUT vector, cDNA target in psi-CHECK, 48 hours
Description: FIGS. 10a-10c show generation of human KIF20A shRNAs and stable Daoy cell lines. […] Candidate shRNAs in pNUT vector were first screened with a cDNA target cloned in psi-CHECK vector in transfected HEK293 cells, using a dual luciferase reporter assay and their cDNA target in psi-CHECK Vector (Promega). Six candidate shKIF20As were tested with this assay. […] Data are mean±S.D. **P<0.01, ***P<0.001 (two-way ANOVA).
DNA Constructs, Lentivirus Production: Lentiviral transfer plasmids used in this study include: Hiv7CMV-Cre-myc-2A-GFP (Addgene #117148), Hiv7CMV-GFP, Hiv7CMV-GFP-IRES-Luciferase, as well as Tet-on inducible shRNA plasmids Tet-pLKO-hushKIF20A726 or Tet-pLKO-hushKIF20A181-Puro (shRNA sequences were cloned into pLKO-Tet-On plasmid, Addgene #21915 at Agel/EcoRI sites). […]
shRNA design and screening: Potential shRNA sequences were selected using web-based design tool (rnaidesigner.thermofisher.com/rnaiexpress/design.do). shRNAs were expressed under the control of a mouse U6 promoter in pNUTs vector which additionally contains a ubiquitin promoter-EGFP expression cassette. Candidate shRNAs in pNUTs and cDNA target in psi-CHECK were co-transfected into HEK293 cells in triplicates; 48 hours later, the firefly and Renilla Luciferase values were determined with Promega's Dual-Luciferase® Reporter Assay System (Promega, E1910). […]

GISC017 cells [2] = experiment: Flow cytometry-based cell cycle analysis (4N DNA content) of GISC017 cells; design: species or system human; settings: vs scrambled shRNA
From the text: as §1

KIF20A [3] = experiment: KIF20A knockdown in GISC017 cells by lentiviral shRNA; format: cell-based, human; settings: constitutive lentiviral expression, vs scrambled shRNA
From the text: as §1

Daoy human MB cells = experiment: Growth assay of Daoy cells; format: cell-based; settings: three Daoy clones, inducible expression of shKIF20A726 (+Dox)
Description: (§2) Generation of Daoy cell lines with stably integrated Tet-on inducible shRNA expression system: Daoy cells were infected with lentivirus of Tet-on inducible human KIF20A shRNA-726 and GFP-Luciferase prepared from Tet-pLKO-hushKIF20A726 plasmid and Hiv7CMVGFP-IRES-Luciferase plasmid, respectively. The transduced Daoy cells were selected for stable single clones with Puromycin (1 μg/ml, Sigma-Aldrich) and GFP fluorescence signal in DMEM (Invitrogen) with 10% fetal bovine serum. Single clones were picked up by glass cloning cylinders (Sigma-Aldrich) in 10 cm plate.
Growth Assay of tumor cells: Mouse MB cell lines, or Daoy clones stably integrated with Tet-on inducible human KIF20A shRNA-726, or Wild Type Daoy cells, were seeded into multiple wells of 24 well plates (2×10^4 or 1×10^4 cells per well). Cells in quadruplicate were then dissociated and counted using a hemocytometer at consecutive days after initial plating.

KIF20A [4] = experiment: Western blot of KIF20A in Daoy clones with Tet-on shKIF20A726; format: cell-based, human; settings: three Daoy clones, doxycycline induction of Tet-on shKIF20A726
Description: Western Blot: Daoy cell clones stably integrated with Tet-on shKIF20A726 were cultured with or without Doxycycline induction for 3 days. These Daoy cells were washed with PBS, lysed with 2×SDS loading buffer and boiled for 5 minutes. Denatured proteins were resolved by SDS-PAGE and transferred to a PVDF membrane for Western blot detection by KIF20A (L13) antibody (1:500) and HRP-conjugated Donkey anti-Goat second antibody (1:2500) with chemiluminescent substrate (ThermoFisher Scientific, Cat: 34095).
as §2, with “plate. Three clones were obtained and tested for growth ability and doxycycline (0.5 μg/ml) inducibility using growth curve assay, western blots and luciferase reporter assay system. Clone #2 was selected for further use.” for “plate.”

5′-GAGGAGTGTCTACATCGAA-TTCAAGAGA-TTCGATGTAGACACTCCTC-3′ (GAGGAGTGTCTACATCGAATTCAAGAGATTCGATGTAGACACTCCTC; hairpin, further chemistry not given here) [shKIF20A726, shRNA targeting human KIF20A transcript]
cell cycle exit (EdU+Ki67− cells) (GISC017 cells [1]): more cells exiting the cell cycle; also recorded: increase of GFP+EdU+Ki67− cells
inhibition of expression of the human KIF20A transcript (luciferase assay) (human KIF20A transcript): significantly inhibit expression of the human KIF20A transcript
4N DNA contents / cytokinesis (GISC017 cells [2]): comparable; also recorded: did not cause obvious change in cytokinesis
KIF20A level (KIF20A [3]): strongly knocked down KIF20A level; also recorded: significant knockdown of KIF20A expression
cell proliferation (Daoy human MB cells): significantly inhibit the proliferation of all three clones; also recorded: inhibit cell proliferation
KIF20A expression (Western blot) (KIF20A [4]): significant knockdown of KIF20A expression in all three cell clones; also recorded: reduction of KIF20A expression
